Molecular target: T1, PD-1/PD-L1 protein/protein interaction (Homo sapiens, UniProt Q9NZQ7)
T1 construct: Recombinant human PD-L1 protein (19-238) with a His-tag at the C-terminus; purchased AcroBiosystems PD1-H5229 (PD-L1-His); PD1-H5257 (PD-1-Fc)
Test: PD-1/PD-L1 Homogeneous Time-Resolved Fluorescence (HTRF) Binding Assay
Conditions: recombinant human PD-L1 (19-238) His-tag and human PD-1 (25-167) Fc tag; 25° C., PBS pH 7.4
Procedure: Example A. PD-1/PD-L1 Homogeneous Time-Resolved Fluorescence (HTRF) Binding Assay
The assays were conducted in a standard black 384-well polystyrene plate with a final volume of 20 μL. Inhibitors were first serially diluted in DMSO and then added to the plate wells before the addition of other reaction components. The final concentration of DMSO in the assay was 1%. The assays were carried out at 25° C. in the PBS buffer (pH 7.4) with 0.05% Tween-20 and 0.1% BSA. Recombinant human PD-L1 protein (19-238) with a His-tag at the C-terminus was purchased from AcroBiosystems (PD1-H5229). Recombinant human PD-1 protein (25-167) with Fc tag at the C-terminus was also purchased from AcroBiosystems (PD1-H5257). PD-L1 and PD-1 proteins were diluted in the assay buffer and 10 μL was added to the plate well. Plates were centrifuged and proteins were preincubated with inhibitors for 40 minutes. The incubation was followed by the addition of […] of HTRF detection buffer supplemented with Europium cryptate-labeled anti-human IgG (PerkinElmer-AD0212) specific for Fc and anti-His antibody conjugated to SureLight®-Allophycocyanin (APC, PerkinElmer-AD0059H). After centrifugation, the plate was incubated at 25° C. for 60 min. before reading on a PHERAstar FS plate reader (665 nm/620 nm ratio). Final concentrations in the assay were […] PD1, 10 nM PD-L1, 1 nM europium anti-human IgG and 20 nM anti-His-Allophycocyanin. IC50 determination was performed by fitting the curve of percent control activity versus the log of the inhibitor concentration using the GraphPad Prism 5.0 software.

T1 sequence (Q9NZQ7 19-238): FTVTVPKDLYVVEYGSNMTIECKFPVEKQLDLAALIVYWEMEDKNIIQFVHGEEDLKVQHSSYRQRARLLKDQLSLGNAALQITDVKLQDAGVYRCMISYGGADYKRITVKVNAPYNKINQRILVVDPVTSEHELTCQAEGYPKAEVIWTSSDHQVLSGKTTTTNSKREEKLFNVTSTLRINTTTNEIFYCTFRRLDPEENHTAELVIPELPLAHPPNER

| Compound | IC50 [nM] |
| --- | --- |
| Cc1c(NC(=O)c2cc(OCC3CC3)c(CNCCO)cn2)cccc1-c1ccccc1 [Example 34, 4-(cyclopropylmethoxy)-5-((2-hydroxyethylamino)methyl)-N-(2-methylbiphenyl-3-yl)picolinamide] | 10 to 100 |
| Cc1cnc(C(=O)Nc2cccc(-c3ccccc3)c2C)cc1CN1CCCC[C@H]1C(=O)O [Example 36, (2S)-1-[(5-methyl-2-{[(2-methylbiphenyl-3-yl)amino]carbonyl}pyridin-4-yl)methyl]piperidine-2-carboxylic Acid] | 10 to 100 |
| Cc1cnc(C(=O)Nc2cccc(-c3ccccc3)c2C)cc1CNCCO [Example 37, 4-{[(2-hydroxyethyl)amino]methyl}-5-methyl-N-(2-methylbiphenyl-3-yl)pyridine-2-carboxamide] | 10 to 100 |
| N#Cc1c(NC(=O)c2ccc(CNCCO)cn2)cccc1C1=CCCCC1 [Example 38, N-(2-cyano-3-cyclohex-1-en-1-ylphenyl)-5-{[(2-hydroxyethyl)amino]methyl} pyridine-2-carboxamide] | ≤ 10 |
| CC(C)(C)OC(=O)N1CCC=C(c2cccc(NC(=O)c3ccc(CNCCO)cn3)c2C#N)C1 [Example 40, tert-butyl 5-(2-cyano-3-{[(5-{[(2-hydroxyethyl)amino]methyl}pyridin-2-yl)carbonyl]amino}phenyl)-3,6-dihydropyridine-1(2H)-carboxylate] | 100 to 1000 |
| N#Cc1c(NC(=O)c2ccc(CNCCO)cn2)cccc1C1CCCCC1 [Example 41, N-(2-cyano-3-cyclohexylphenyl)-5-{[(2-hydroxyethyl)amino]methyl}pyridine-2-carboxamide] | 10 to 100 |
| Cc1c(NC(=O)c2ccc(CNCCO)cn2)ccnc1-c1ccccc1 [Example 43, 5-{[(2-hydroxyethyl)amino]methyl}-N-(3-methyl-2-phenylpyridin-4-yl)pyridine-2-carboxamide] | 100 to 1000 |
| N#Cc1c(NC(=O)c2ccc(CNCCO)cn2)cccc1C1=COCCC1 [Example 44, N-[2-cyano-3-(3,4-dihydro-2H-pyran-5-yl)phenyl]-5-{[(2-hydroxyethyl)amino]methyl}pyridine-2-carboxamide] | 10 to 100 |
| N#Cc1c(NC(=O)c2ccc(CNCCO)cn2)cccc1-c1ccc2c(c1)OCC2 [Example 47, N-[2-cyano-3-(2,3-dihydro-1-benzofuran-6-yl)phenyl]-5-{[(2-hydroxyethyl)amino]methyl}pyridine-2-carboxamide] | 10 to 100 |
| Cn1cc2ccc(-c3cccc(NC(=O)c4ccc(CNCCO)cn4)c3C#N)cc2n1 [Example 48, N-[2-cyano-3-(2-methyl-2H-indazol-6-yl)phenyl]-5-{[(2-hydroxyethyl)amino]methyl}pyridine-2-carboxamide] | 10 to 100 |
| Cn1ncc2c(-c3cccc(NC(=O)c4ccc(CNCCO)cn4)c3C#N)cccc21 [Example 49, N-[2-cyano-3-(1-methyl-1H-indazol-4-yl)phenyl]-5-{[(2-hydroxyethyl)amino]methyl}pyridine-2-carboxamide] | ≤ 10 |

The next lines start with the values.

| IC50 [nM] | Compound |
| --- | --- |
| ≤ 10 | COc1cc(C(=O)Nc2cccc(-c3ccccc3)c2C)ncc1CNCCO [Example 35, 5-{[(2-hydroxyethyl)amino]methyl}-4-methoxy-N-(2-methylbiphenyl-3-yl)pyridine-2-carboxamide] |
| > 1000 | N#Cc1c(NC(=O)c2ccc(CNCCO)cn2)cccc1N1CCCCC1 [Example 39, N-(2-cyano-3-piperidin-1-ylphenyl)-5-{[(2-hydroxyethyl)amino]methyl}pyridine-2-carboxamide] |
| > 1000 | Cc1c(NC(=O)c2ccc(CN3CCCC[C@H]3C(=O)O)cn2)ccnc1-c1ccccc1 [Example 42, (S)-1-((6-(3-methyl-2-phenylpyridin-4-ylcarbamoyl)pyridin-3-yl)methyl)piperidine-2-carboxylic Acid] |
| ≤ 10 | Cc1c(NC(=O)c2ccc(CNCCO)cn2)cc(F)cc1-c1ccc2c(c1)OCCO2 [Example 45, N-[3-(2,3-dihydro-1,4-benzodioxin-6-yl)-5-fluoro-2-methylphenyl]-5-{[(2-hydroxyethyl)amino]methyl}pyridine-2-carboxamide] |
| 100 to 1000 | CN1CCOc2cc(-c3cccc(NC(=O)c4ccc(CNCCO)cn4)c3C#N)ccc21 [Example 46, N-[2-cyano-3-(4-methyl-3,4-dihydro-2H-1,4-benzoxazin-7-yl)phenyl]-5-{[(2-hydroxyethyl)amino]methyl}pyridine-2-carboxamide] |

— patent US12516044B2, “Heterocyclic compounds as immunomodulators” (Incyte Corporation, priority 2015, dated 2026)
